Reference: ChEMBL document CHEMBL1146649, “New highly active taxoids from 9 beta-dihydrobaccatin-9,10-acetals. Part 5” (2004)
Converted amounts (≈) assume the structure as drawn.

Assays:
Mus musculus [1] = experiment: Maximum rate of body weight loss after intravenous administration of 11.9 mg/kg of compound in mice; <0 indicates no weight loss; type: functional
Mus musculus [2] = experiment: Maximum rate of body weight loss after intravenous administration of 7.9 mg/kg of compound in mice; type: functional
Mus musculus [3] = experiment: Maximum rate of body weight loss after peroral administration of 7.9 mg/kg of compound in mice; type: functional; settings: route oral
Mus musculus [4] = experiment: Number of mice died at 7.9 mg/kg of intravenous dose of compound among the total 6 mice tested; type: functional
PC-6 [5] = experiment: Concentration required to inhibit human PC-6/VP1-1 cell line growth by 50% at 72 hr exposure; type: functional; settings: PC-6, 72 h
Mus musculus [6] = experiment: Effective dose of intravenously administered compound against B16 melanoma BL6 cells implanted into mice; range is 11.9-17.8; type: functional; settings: B16, iv
B16 [7] = experiment: Antitumor activity of 11.9 mg/kg of perorally administered compound against B16 melanoma BL6 cells implanted into mice, value reported is percent compared to control; type: functional, Mus musculus; settings: route oral
Mus musculus [8] = experiment: Effective dose of perorally administered compound against B16 melanoma BL6 cells implanted into mice; range is 11.9-17.8; type: functional; settings: B16, po
Mus musculus [9] = experiment: Antitumor activity of 17.8 mg/kg of intravenously administered compound against B16 melanoma BL6 cells implanted into mice, value reported is percent compared to control; type: functional; settings: route intravenous
Mus musculus [10] = experiment: Number of mice died at 26.7 mg/kg of intravenous dose of compound among the total 6 mice tested; type: functional
Mus musculus [11] = experiment: Number of mice died at 17.8 mg/kg of peroral dose among the total 6 mice tested; type: functional; settings: route oral
Mus musculus [12] = experiment: Number of mice died at 11.9 mg/kg of peroral dose, among the total 6 mice tested; type: functional; settings: route oral
Mus musculus [13] = experiment: Number of mice died at 7.9 mg/kg of peroral dose of compound among the total 6 mice tested; type: functional; settings: route oral
PC-12 = experiment: Concentration required to inhibit human PC-12 cell line growth by 50% at 72 hr continuous exposure; type: functional; settings: PC-12, 72 h
PC-6 [14] = experiment: Concentration required to inhibit human PC-6 cell line growth by 50% at 72 hr continuous exposure; type: functional; settings: PC-6, 72 h
Mus musculus [15] = experiment: Maximum rate of body weight loss after peroral administration of 26.7 mg/kg of compound in mice; type: functional; settings: route oral
Mus musculus [16] = experiment: Maximum rate of body weight loss after peroral administration of 17.8 mg/kg of compound in mice; type: functional; settings: route oral
B16 [17] = experiment: Antitumor activity of 17.8 mg/kg of perorally administered compound against B16 melanoma BL6 cells implanted into mice, value reported is percent compared to control; type: functional, Mus musculus; settings: route oral
Mus musculus [18] = experiment: Number of mice died at 17.8 mg/kg of intravenous dose among the total 6 mice tested; type: functional
PC-6 [19] = experiment: Concentration required to inhibit human PC-6/VCR29-9 cell line growth by 50% at 72 hr exposure; type: functional; settings: PC-6, 72 h
B16 [20] = experiment: Antitumor activity of 11.9 mg/kg of intravenously administered compound against B16 melanoma BL6 cells implanted into mice, value reported is percent compared to control; type: functional, Mus musculus; settings: route intravenous
Mus musculus [21] = experiment: Antitumor activity of 26.7 mg/kg of perorally administered compound against B16 melanoma BL6 cells implanted into mice, value reported is percent compared to control; type: functional; settings: route oral
Mus musculus [22] = experiment: Number of mice died at 26.7 mg/kg of peroral dose of compound among the total 6 mice tested; type: functional; settings: route oral
Mus musculus [23] = experiment: Antitumor activity of 7.9 mg/kg of perorally administered compound against B16 melanoma BL6 cells implanted into mice, value reported is percent compared to control; type: functional; settings: route oral
P388 = experiment: Concentration required to inhibit mouse P388 cell line growth by 50% at 72 hr continuous exposure; type: functional; settings: P388, 72 h
Mus musculus [24] = experiment: Antitumor activity of 7.9 mg/kg of intravenously administered compound against B16 melanoma BL6 cells implanted into mice, value reported is percent compared to control; type: functional; settings: route intravenous
Mus musculus [25] = experiment: Maximum rate of body weight loss after peroral administration of 11.9 mg/kg of compound in mice; <0 indicates no weight loss; type: functional; settings: route oral
Mus musculus [26] = experiment: Maximum rate of body weight loss after intravenous administration of 17.8 mg/kg of compound in mice; type: functional
Mus musculus [27] = experiment: Number of mice died at 11.9 mg/kg of intravenous dose, among the total 6 mice tested; type: functional

CC(=O)O[C@@]12CO[C@@H]1CC[C@@]1(C)[C@@H]3O[C@H](CN4CCOCC4)O[C@@H]3C3=C(C)[C@@H](OC(=O)[C@H](O)[C@@H](NC(=O)OC(C)(C)C)c4cccc(F)n4)C[C@@](O)([C@@H](OCc4ccccc4)[C@@H]12)C3(C)C
BWLmax (Mus musculus [1]): <0%
BWLmax (Mus musculus [2]): 0.3%
BWLmax (Mus musculus [3]): 0.8%
Mortality (Mus musculus [4]): 0
GI50 (PC-6 [5]): 0.0137 µg/mL (≈ 15.1 nM)
ED50 (Mus musculus [6]): 17.8 mg/kg
IR (B16 [7]): 65.9%
ED50 (Mus musculus [8]): 17.8 mg/kg
IR (Mus musculus [9]): 94.7%
Mortality (Mus musculus [10]): 6
Mortality (Mus musculus [11]): 0
Mortality (Mus musculus [12]): 0
Mortality (Mus musculus [13]): 0
GI50 (PC-12): 0.14 ng/mL (≈ 0.154 nM)
GI50 (PC-6 [14]): 0.29 ng/mL (≈ 0.319 nM)
BWLmax (Mus musculus [15]): 16.6%
BWLmax (Mus musculus [16]): 2.2%
IR (B16 [17]): 88.5%
Mortality (Mus musculus [18]): 0
GI50 (PC-6 [19]): 0.96 ng/mL (≈ 1.05 nM)
IR (B16 [20]): 85.7%
IR (Mus musculus [21]): 97.4%
Mortality (Mus musculus [22]): 1
IR (Mus musculus [23]): -16.3%
GI50 (P388): 0.2 ng/mL (≈ 0.22 nM)
IR (Mus musculus [24]): 28.6%
BWLmax (Mus musculus [25]): <0%
BWLmax (Mus musculus [26]): 11.9%
Mortality (Mus musculus [27]): 0
